Experimental data: ChEMBL document CHEMBL1201862, “PubChem BioAssay data set” (2004)
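Tested at 5 concentrations; 48 h exposure; 96-well plates; endpoints linearly interpolated, else capped at highest concentration. The concentration for 50% growth inhibition is given as GI50.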 Calls of active or inactive are those of the source. Rule as the data show it: active = GI50 up to about 1.1 µM and inactive = higher.

What was measured:
Experiment in all cases: growth of human tumour cells (NCI), 48 h
[1] = test system: EKVX
[2] = test system: SF-268
[3] = test system: HCT-116
[4] = test system: M14
[5] = test system: BT-549
[6] = test system: NCI/ADR-RES
[7] = test system: ACHN
[8] = test system: K562
[9] = test system: HOP-62
[10] = test system: COLO 205
[11] = test system: SK-MEL-28
[12] = test system: HT-29
[13] = test system: OVCAR-3
[14] = test system: SK-MEL-5
[15] = test system: LOX IMVI
[16] = test system: TK-10
[17] = test system: RPMI-8226
[18] = test system: SR
[19] = test system: NCI-H226
[20] = test system: SW-620
[21] = test system: CAKI-1
[22] = test system: 786-0
[23] = test system: PC-3
[24] = test system: SK-MEL-2
[25] = test system: SF-295
[26] = test system: RXF 393
[27] = test system: T47D
[28] = test system: KM12
[29] = test system: NCI-H522
[30] = test system: U-251
[31] = test system: OVCAR-4
[32] = test system: SNB-19
[33] = test system: MDA-N
[34] = test system: CCRF-CEM
[35] = test system: DU-145
[36] = test system: HOP-92
[37] = test system: MCF7
[38] = test system: OVCAR-8
[39] = test system: MDA-MB-435
[40] = test system: NCI-H460
[41] = test system: MOLT-4
[42] = test system: SK-OV-3
[43] = test system: Malme-3M
[44] = test system: A549
[45] = test system: SNB-75
[46] = test system: UO-31
[47] = test system: Hs-578T
[48] = test system: HCT-15
[49] = test system: HL-60
[50] = test system: UACC-257
[51] = test system: IGROV-1
[52] = test system: MDA-MB-231
[53] = test system: HCC 2998
[54] = test system: SF-539
[55] = test system: NCI-H23
[56] = test system: OVCAR-5
[57] = test system: SN12C
[58] = test system: A498

Brc1ccc(CCNCCN2CCCCC2)cc1
GI50 [1]: 33.1 µM (inactive)
GI50 [2]: 15.5 µM (inactive)
GI50 [3]: 12.1 µM (inactive)
GI50 [4]: 15.6 µM (inactive)
GI50 [5]: 15.7 µM (inactive)
GI50 [6]: 21.1 µM (inactive)
GI50 [7]: 20.6 µM (inactive)
GI50 [8]: 4.1 µM (inactive)
GI50 [9]: 20.4 µM (inactive)
GI50 [10]: 12.9 µM (inactive)
GI50 [11]: 11.8 µM (inactive)
GI50 [12]: 4 µM (inactive)
GI50 [13]: 15.4 µM (inactive)
GI50 [14]: 8.07 µM (inactive)
GI50 [15]: 14.1 µM (inactive)
GI50 [16]: 15.5 µM (inactive)
GI50 [17]: 37.7 µM (inactive)
GI50 [18]: > 100 µM (inactive)
GI50 [19]: 37.8 µM (inactive)
GI50 [20]: 17 µM (inactive)
GI50 [21]: 14.1 µM (inactive)
GI50 [22]: 14.1 µM (inactive)
GI50 [23]: 15.6 µM (inactive)
GI50 [24]: 19.4 µM (inactive)
GI50 [25]: 18.3 µM (inactive)
GI50 [26]: 33.6 µM (inactive)
GI50 [27]: 15.6 µM (inactive)
GI50 [28]: 16.6 µM (inactive)
GI50 [29]: 16.4 µM (inactive)
GI50 [30]: 18.4 µM (inactive)
GI50 [31]: 19.3 µM (inactive)
GI50 [32]: 17.3 µM (inactive)
GI50 [33]: 10.7 µM (inactive)
GI50 [34]: 14.2 µM (inactive)
GI50 [35]: 35.6 µM (inactive)
GI50 [36]: 10.8 µM (inactive)
GI50 [37]: 15.7 µM (inactive)
GI50 [38]: 16.5 µM (inactive)
GI50 [39]: 5.47 µM (inactive)
GI50 [40]: 14.7 µM (inactive)
GI50 [41]: 62.1 µM (inactive)
GI50 [42]: 21.2 µM (inactive)
GI50 [43]: 17.7 µM (inactive)
GI50 [44]: 16.4 µM (inactive)
GI50 [45]: 12.8 µM (inactive)
GI50 [46]: 12.2 µM (inactive)
GI50 [47]: 20.3 µM (inactive)
GI50 [48]: 18.1 µM
GI50 [49]: 33 µM (inactive)
GI50 [50]: 14.8 µM (inactive)
GI50 [51]: 17.1 µM (inactive)
GI50 [52]: 8.05 µM (inactive)
GI50 [53]: 14.5 µM (inactive)
GI50 [54]: 10.9 µM (inactive)
GI50 [55]: 16.4 µM (inactive)
GI50 [56]: 17 µM (inactive)
GI50 [57]: 25.9 µM (inactive)
GI50 [58]: 18 µM (inactive)
